According to patent US20060167086A1, “Medicinal composition” (priority 2003, published 2006):

Legend:
[1] = Type II collagen-induced rheumatoid arthritis model mice; assay type: in vivo; settings: administration to model mice of type II collagen-induced rheumatoid arthritis
[2] = system: Hodgkin's-lymphoma cells in which NF-κB is activated; test: Proliferation of Hodgkin's-lymphoma cells; assay type: cell-based
[3] = system: myelocytic leukemia cells in which NF-κB is not activated; test: Proliferation of myelocytic leukemia cells; assay type: cell-based
[4] = system: human breast cancer cells; test: Proliferation of human breast cancer cells in vitro and in vivo; assay type: cell-based; settings: in a manner not depending on apoptosis
[5] = system: leukemia cells in which NF-κB is activated; test: Apoptosis of leukemia cells; assay type: cell-based
[6] = system: human normal leukocytes; test: Apoptosis of human normal leukocytes; assay type: cell-based; settings: same concentration as that used in inducing apoptosis of leukemia cells
[7] = system: NF-κB; test: NF-κB activation in ATL cells; assay type: cell-based
[8] = system: adult T cell leukemia/lymphoma (ATL) cells; test: Proliferation of ATL cells; assay type: cell-based
[9] = system: normal cells; test: Proliferation of normal cells; assay type: cell-based
[10] = system: adult T cell leukemia/lymphoma (ATL) cells; test: Apoptosis of ATL cells; assay type: cell-based
[11] = system: normal cells; test: Apoptosis of normal cells; assay type: cell-based
[12] = Model mice with induced cachexic symptoms; assay type: in vivo; settings: administered to model mice with induced cachexic symptoms
[13] = Combination with oncotherapy that activates NF-κB; settings: used in combination
[14] = system: NF-κB; settings: J. Biol. Chem. 277, 24625-24630, 2002; cited from earlier work
[15] = Bioorg. Med. Chem. Lett. 10, 865-869, 2000; cited from earlier work
[16] = system: prostatic cancer; settings: Cancer Res. 2003; 63(1):107-10; cited from earlier work
[17] = system: breast cancer; settings: Annual Meeting of the Japanese Cancer Association, 2002; cited from earlier work
[18] = background statement; cited from earlier work
[19] = system: multiple myeloma cells line KMS-12-PE; test: Antitumor effect in myeloma model mice; assay type: in vivo, CB17/lcr-SCID mice; settings: 8 mg/kg BW intraperitoneally every day for 14 days; FIG. 5
Protocol: Next, the antitumor effect of (−)-DHM2EQ on multiple myeloma was investigated. The multiple myeloma cells line KMS-12-PE (Ohtsuki T. et al., Br. J. Hematol. 73, 199-204, 1989) (4×10^7 cells) was dissolved in 0.2 ml of PBS and injected subcutaneously into the left back of CB17/lcr-SCID mice to form tumors. Pieces of these tumors (5 mm^3) were implanted in 10 mice. […] Subsequently, a solution of (−)-DHM2EQ (RPMI1640 medium) was administered intraperitoneally to 5 mice at 8 mg/kg BW every day for 14 days ((−)-DHM2EQ). Another five mice in the control group were given an equal amount of solvent (Control). The diameters of tumors were measured twice a week (Tumor volume=(minor axis)^2×(major axis)×0.52).

[20] = system: Undifferentiated human thyroid cancer cell FRO; test: Antitumor effect in thyroid cancer model mice; assay type: in vivo, BALB/cnu/nu male mice; settings: 10 mg/kg BW intraperitoneally every day for 10 days; FIG. 6
Protocol: The antitumor effect of (−)-DHM2EQ on human thyroid cancer was investigated. Undifferentiated human thyroid cancer cell suspension FRO (5×10^6 cells; 1200 μl of RPMI-1640) was injected subcutaneously into the flank of 8-week-old BALB/cnu/nu male mice (Charles River, Japan). Subsequently, tumor sizes were measured with calipers every other day, and tumor volume was calculated by formula (a; minor axis of tumor)^2×(b: perpendicular diameter to a)×0.4).

[21] = system: hypertrophic fat cells (from precursor fat cell line 3T3-L1); test: Apoptosis induction (TUNEL) in hypertrophic fat cells; assay type: cell-based
Protocol: It is considered that diseases involving insulin resistance result from TNF-α secreted from hypertrophic fat cells, as mentioned above. Thus, to examine whether (−)-DHM2EQ can induce apoptosis of hypertrophic fat cells, the influence of (−)-DHM2EQ on the hypertrophic fat cells obtained by inducing differentiation of precursor fat cells in long-term culture was investigated. The precursor fat cell line 3T3-L1 (7.5×10^4 cells; 1 ml of DMEM+10% FBS) was plated on coverslips in 12-well plates. A few days after the cells reached confluency, the cell medium was changed to a medium containing 500 μM of 3-isobutyl-1-methylxanthine (IBMX), 1 μM of dexamethasone (Dex), and a medium containing 1 μg/ml of insulin. After culture for 3 days, this medium was changed to a media containing 1 μg/ml insulin, which was cultured for another 3 days, followed by replacement with a normal medium (DMEM containing 10% FBS). Thereafter, medium change was performed every three days continuously till day 50.
On day 50 after differentiation induction, medium change was performed. […] After another 24 h, the medium was removed and hypertrophy fat cells were washed 3 times with 500 μl of PBS (8 g/l NaCl, 0.45 g/l NaH2PO4.2H2O, 1.28 g/l Na2HPO4) for fluorescent antibodies and fixed for 15 min at 4° C. in 500 μl of 4% paraformaldehyde. Subsequently, cells were washed three times with 500 μl of PBS for fluorescent antibodies and treated for 15 min with 0.2% BSA and 0.5% Tween-20 in PBS for fluorescent antibodies.
Subsequently, the coverslips were washed three times with 500 μl of distilled water and then mounted on the paraffin sheet in 150-mm^2 shielded Petri dishes, cells facing upward. TUNEL solution (TdT buffer II/FITC-dUTP/TdT=45 μl/2.5 μl/2.5 μl) was dropped in 45-μl drops onto the coverslips, followed by incubation for 1 h at 37° C. Finally, the coverslips were returned to shielded 12-well plates and washed three times with 1 ml of PBS for fluorescent antibodies. Then the coverslips were removed, mounted on a slide in 50% glycerol, and observed under a fluorescence microscope.

[22] = Body weight under high fat diet in obese type 2 diabetes model; assay type: in vivo; settings: supplemented to high fat diet, 4 weeks, KKA^y female mice; FIG. 8
Protocol: Four-week-old KKA^y female mice were divided into two groups: the (−)-DHM2EQ group (n=5) and the control group (n 4). A high fat diet (CRF-1; Oriental Yeast Co.) as a basal chow diet was fed ad libitum for 4 weeks to the non-supplemented group (∘: without (−)-DHM2EQ) and the (−)-DHM2EQ-administered group (●: with (−)-DHM2EQ). Body weights of animals were measured weekly. The (−)-DHM2EQ given to mice was ground to fine powder in a mortar, suspended or dissolved in a 5% CMC solution, and supplemented to the high fat diet.

[23] = system: C2C12 myoblast cell line; test: Relief of TNF-α inhibition of differentiation from myoblasts to muscle cells; assay type: cell-based, mouse; settings: 6 days
Protocol: Thus, the inventors investigated whether addition of (−)-DHM2EQ can relieve the inhibitory responses to muscle differentiation by TNF-α, using a differentiation induction system of the C2C12 myoblast cell line. Using DMEM (culture medium) containing 10% FBS a mouse skeletal myogenic cell line, C2C12 (purchased from the RIKEN cell bank) was prepared at 7.5×10^4 cells/ml. Cells were seeded in plastic 12-well plates on coverslips (1 ml/well; Matsunami Glass Ind., Ltd., Osaka, Japan). Subsequently, when cells had grown to confluence, the medium was changed to DMEM (differentiation medium) containing 0.5% heat-inactivated horse serum. Cells to be subjected to the effect of TNF-α (1 ng/ml) and/or (−)-DHMEQ (3 μg/(ml)) were supplemented with each agent at this point. After 6 days, on confirmation of the formation of multinucleated myotubes, a marker of muscle cell differentiation, the medium was removed. The control was prepared by culturing cells in a culture medium at a density such that confluency was reached exactly on day 6.
These cells were washed twice with PBS^− (Ca^2+, Mg^2+-free PBS; 8.0 g/l NaCl, 0.2 g/l KCl, 2.3 g/l NaHPO4.12H2O, 0.2 g/l KH2PO4). […]
Samples thus prepared were mounted on a slide and photographed at 400× magnification with a fluorescence microscope (Nikon UFX-DX; set with a 40× phase contrast objective, Ph2). […]

[24] = system: NF-κB; test: Inhibition of NF-κB activity; assay type: cell-based

In the case of `O=C(NC1=CC(=O)C2OC2C1O)c1ccccc1O` (racemic) [(±)-DHM2EQ, 5,6-epoxy-4-hydroxy-3-salicyloylamino-2-cyclohexenone], the arthritic symptoms [1] is reported as “efficacy of (±)-DHM2EQ in suppression of arthritic symptoms”, the “proliferation of Hodgkin's-lymphoma cells” value [2] is reported as “inhibits proliferation” and the “proliferation of myelocytic leukemia cells” value [3] is reported as “does not inhibit proliferation”. For the same compound, the “proliferation of human breast cancer cells” value [4] was “suppresses proliferation”, the “apoptosis of leukemia cells” value [5] was “induces apoptosis” and the “apoptosis of human normal leukocytes” value [6] was “does not in the least induce apoptosis”. For the same compound, the “NF-κB activation in ATL cells” value [7] was “inhibits NF-κB activation”, the “proliferation of ATL cells” value [8] was “specifically capable of inhibiting proliferation” and the “proliferation of normal cells” value [9] was “does not inhibit proliferation”. The “apoptosis of ATL cells” value [10] was “capable of inducing apoptosis”, the “apoptosis of normal cells” value [11] was “does not induce apoptosis” and the cachexic symptoms [12] was “efficacy of (±)-DHM2EQ in prevention/improvement of cachexic symptoms”. The “effect of oncotherapy that activates NF-κB (chemotherapy, radiotherapy)” value [13] was “enhances the effect”, the “NF-κB inhibition on a cellular level” value [14] was “inhibits NF-κB strongly” and the “symptoms in a model mouse of rheumatism” value [15] was “suppresses symptoms”. The “growth of prostatic cancer on an organism level” value [16] was “strongly suppresses the growth”, the “growth of breast cancer on an organism level” value [17] was “strongly suppresses the growth” and the toxicity [18] was “low toxicity”.

For `O=C(NC1=CC(=O)[C@H]2O[C@H]2[C@H]1O)c1ccccc1O` [(−)-DHM2EQ], the “tumor growth (tumor volume) compared with the control” value [19] was “significantly suppresses tumor growth”, the “tumor growth (tumor volume) compared with the control” value [20] was “significantly inhibits tumor growth” and the “apoptosis of hypertrophic fat cells” value ([21]; 10 μg/ml (−)-DHM2EQ alone, without TNF-α) was “did not induce apoptosis”. For the same compound, the “apoptosis of hypertrophic fat cells” value ([21]; pretreated with 10 mg/ml (−)-DHM2EQ, then stimulation with 10 ng/ml TNF-α, TUNEL, FIG. 7) was “induces apoptosis”, the “body weight under high fat diet load” value [22] was “suppression of body weight” and the “inhibition by TNF-α of differentiation induction from myoblasts to muscle cells” value ([23]; 1 to 3 μg/ml (−)-DHM2EQ with 1 ng/ml TNF-α, FIG. 9) was “relieves the inhibition of the differentiation induction”. The “inhibitory effect on the NF-kappa B activity relative to (±)-DHM2EQ” value [24] was “several to ten or more times stronger”.

In the case of TNF-α [reference compound], the “apoptosis of hypertrophic fat cells” value ([21]; 10 ng/ml TNF-α alone) is reported as “did not induce apoptosis” and the “differentiation induction from myoblasts to muscle cells” value ([23]; 1 ng/ml TNF-α) is reported as “suppressed differentiation induction”.
